These results are taken from patent US8471005B2 (Cephalon, Inc., priority 2008, dated 2013).

The target in one test is T1, ALK (Homo sapiens, UniProt Q9UM73).
T1 construct: host or cells: baculovirus expression system
The experiment in a line: ALK Kinase Assay (ELISA/TRF, PLC-γ substrate). In kind it is biochemical. The conditions noted are these: ALK Kinase Inhibition; read-out: ALK Potency. A digest of the protocol: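 First, plates are coated with substrate (phospholipase C-γ, 10 μg/mL, TBS). Next, 30 ng/ml ALK initiates phosphorylation for 15 min at 37° C. Then Eu-N1 PT66 antibody is added for detection, and a nonlinear dose-response fit of percent inhibition yields IC50.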
(In general: ELISA stands for enzyme-linked immunosorbent assay.)

In another test the target is T2, JAK2 (Homo sapiens, UniProt O60674).
T2 construct: host or cells: baculovirus expression system
T2 sequence (O60674 whole entry): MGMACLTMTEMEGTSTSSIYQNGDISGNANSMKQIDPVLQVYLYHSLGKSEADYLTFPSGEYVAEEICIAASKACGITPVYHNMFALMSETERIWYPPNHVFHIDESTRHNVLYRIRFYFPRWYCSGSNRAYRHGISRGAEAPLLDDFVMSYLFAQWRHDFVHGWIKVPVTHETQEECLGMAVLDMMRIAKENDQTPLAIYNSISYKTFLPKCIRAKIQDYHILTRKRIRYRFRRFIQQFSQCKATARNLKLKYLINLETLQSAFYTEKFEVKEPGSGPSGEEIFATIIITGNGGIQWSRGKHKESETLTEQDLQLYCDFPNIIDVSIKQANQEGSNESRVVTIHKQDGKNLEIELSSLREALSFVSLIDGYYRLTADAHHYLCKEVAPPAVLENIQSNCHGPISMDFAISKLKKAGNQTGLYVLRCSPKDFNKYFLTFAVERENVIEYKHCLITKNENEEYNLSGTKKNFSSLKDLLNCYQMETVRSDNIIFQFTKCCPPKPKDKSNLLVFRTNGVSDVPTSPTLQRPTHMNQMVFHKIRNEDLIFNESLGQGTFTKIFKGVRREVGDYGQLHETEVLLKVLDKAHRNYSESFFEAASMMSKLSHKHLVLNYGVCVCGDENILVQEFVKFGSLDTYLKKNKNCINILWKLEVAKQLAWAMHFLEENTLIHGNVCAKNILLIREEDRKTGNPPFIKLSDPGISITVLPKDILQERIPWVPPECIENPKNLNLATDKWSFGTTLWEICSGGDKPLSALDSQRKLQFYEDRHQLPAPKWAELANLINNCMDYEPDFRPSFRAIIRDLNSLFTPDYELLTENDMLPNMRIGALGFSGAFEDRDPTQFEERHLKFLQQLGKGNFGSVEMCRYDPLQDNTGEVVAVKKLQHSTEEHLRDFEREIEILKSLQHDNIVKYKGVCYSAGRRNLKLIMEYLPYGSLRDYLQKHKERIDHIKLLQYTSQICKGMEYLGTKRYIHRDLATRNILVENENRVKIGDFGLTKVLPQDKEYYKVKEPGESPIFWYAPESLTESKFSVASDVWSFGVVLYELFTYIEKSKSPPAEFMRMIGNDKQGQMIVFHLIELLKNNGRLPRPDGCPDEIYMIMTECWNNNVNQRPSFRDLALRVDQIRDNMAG
The experiment in a line: Recombinant Human JAK2 Kinase Assay (TRF). In kind it is biochemical. The conditions noted are these: JAK2 Kinase Inhibition; read-out: JAK2 Potency. A digest of the protocol:
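Baculovirus-expressed JAK2 (15 ng/ml) phosphorylated a biotinylated 15-mer peptide captured on Neutravidin-coated plates, in 20 mM HEPES pH 7.2 with 0.2 μM ATP, 1 mM MnCl2, 0.1% BSA and 2.5% DMSO. Reaction ran 20 min at room temperature; phosphopeptide was detected by time-resolved fluorescence with Eu-N1-labelled PY100 antibody.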

T1 sequence (Q9UM73 19-1620): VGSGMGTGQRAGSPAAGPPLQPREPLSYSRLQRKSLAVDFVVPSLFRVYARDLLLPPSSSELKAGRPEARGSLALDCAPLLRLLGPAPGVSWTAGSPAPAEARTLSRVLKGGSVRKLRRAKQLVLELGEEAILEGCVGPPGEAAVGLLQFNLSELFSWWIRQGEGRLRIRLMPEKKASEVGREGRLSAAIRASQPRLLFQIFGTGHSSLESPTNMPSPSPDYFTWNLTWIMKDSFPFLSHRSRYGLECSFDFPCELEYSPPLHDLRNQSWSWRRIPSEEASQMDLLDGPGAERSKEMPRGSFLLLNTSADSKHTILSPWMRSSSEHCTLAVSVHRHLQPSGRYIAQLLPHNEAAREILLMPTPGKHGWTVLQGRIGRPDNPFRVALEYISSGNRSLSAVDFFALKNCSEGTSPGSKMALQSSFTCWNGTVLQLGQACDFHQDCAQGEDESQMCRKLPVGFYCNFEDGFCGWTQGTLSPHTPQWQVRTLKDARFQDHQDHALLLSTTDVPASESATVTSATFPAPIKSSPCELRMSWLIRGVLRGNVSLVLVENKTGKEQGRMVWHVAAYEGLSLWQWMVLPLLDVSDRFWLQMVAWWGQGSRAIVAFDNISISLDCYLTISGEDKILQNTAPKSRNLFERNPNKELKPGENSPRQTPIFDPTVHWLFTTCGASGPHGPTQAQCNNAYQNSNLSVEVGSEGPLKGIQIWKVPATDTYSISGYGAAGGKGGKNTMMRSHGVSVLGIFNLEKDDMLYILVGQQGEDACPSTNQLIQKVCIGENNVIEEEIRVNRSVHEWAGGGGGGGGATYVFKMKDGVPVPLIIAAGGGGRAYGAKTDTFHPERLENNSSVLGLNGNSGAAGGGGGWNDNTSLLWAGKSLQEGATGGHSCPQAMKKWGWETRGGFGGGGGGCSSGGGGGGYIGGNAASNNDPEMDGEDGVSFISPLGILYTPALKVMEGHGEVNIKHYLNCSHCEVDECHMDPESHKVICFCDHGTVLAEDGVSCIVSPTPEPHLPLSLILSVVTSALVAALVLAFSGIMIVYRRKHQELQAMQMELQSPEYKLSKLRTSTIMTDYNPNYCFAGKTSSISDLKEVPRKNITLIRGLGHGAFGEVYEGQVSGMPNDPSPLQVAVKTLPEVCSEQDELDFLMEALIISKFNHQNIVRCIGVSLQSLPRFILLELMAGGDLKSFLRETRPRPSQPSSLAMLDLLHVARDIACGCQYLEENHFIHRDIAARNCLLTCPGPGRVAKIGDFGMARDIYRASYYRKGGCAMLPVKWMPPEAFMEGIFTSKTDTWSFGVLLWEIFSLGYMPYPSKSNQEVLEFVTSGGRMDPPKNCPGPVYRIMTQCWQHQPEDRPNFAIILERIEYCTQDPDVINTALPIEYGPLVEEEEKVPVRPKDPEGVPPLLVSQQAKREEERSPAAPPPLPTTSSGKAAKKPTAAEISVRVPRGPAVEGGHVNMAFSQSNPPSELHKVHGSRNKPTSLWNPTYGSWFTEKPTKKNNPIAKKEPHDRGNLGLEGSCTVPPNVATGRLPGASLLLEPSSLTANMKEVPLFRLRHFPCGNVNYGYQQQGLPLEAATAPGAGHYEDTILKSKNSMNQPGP

As for `COc1ccccc1-c1ccc2cnc(Nc3ccc(OCCN4CCCC4)cc3)nn12` [Example 121, [7-(2-Methoxy-phenyl)-pyrrolo[2,1-f][1,2,4]triazin-2-yl]-[4-(2-pyrrolidin-1-yl-ethoxy)-phenyl]-amine], the IC50 on ALK and at JAK2 was < 100 nM in each case.

For the molecule `COc1ccccc1-c1ccc2cnc(Nc3cc[nH]n3)nn12` [Example 122, [7-(2-Methoxy-phenyl)-pyrrolo[2,1-f][1,2,4]triazin-2-yl]-(1H-pyrazol-3-yl)-amine], the IC50 was 100 to 1000 nM on ALK and < 100 nM at JAK2.

With `CN1CCN(c2ccc(Nc3ncc4ccc(C5CCCCC5)n4n3)cc2)CC1` [Example 123, (7-Cyclohexyl-pyrrolo[2,1-f][1,2,4]triazin-2-yl)-[4-(4-methyl-piperazin-1-yl)-phenyl]-amine], the IC50 on ALK is 100 to 1000 nM; at JAK2 it was < 100 nM.

For `c1cncc(-c2ccc3cnc(Nc4cc[nH]n4)nn23)c1` [Example 124, (1H-Pyrazol-3-yl)-(7-pyridin-3-yl-pyrrolo[2,1-f][1,2,4]triazin-2-yl)-amine], the IC50 on ALK is 1000 to 10000 nM; at JAK2, < 100 nM.

Turning to `c1cncc(-c2ccc3cnc(Nc4ccc(OCCN5CCOCC5)cc4)nn23)c1` [Example 125, [4-(2-Morpholin-4-yl-ethoxy)-phenyl]-(7-pyridin-3-yl-pyrrolo[2,1-f][1,2,4]triazin-2-yl)-amine], the IC50 on ALK is 100 to 1000 nM; at JAK2, < 100 nM.

As for `c1cc(N2CCOCC2)ccc1Nc1ncc2ccc(C3CCCCC3)n2n1` [Example 127, (7-Cyclohexyl-pyrrolo[2,1-f][1,2,4]triazin-2-yl)-(4-morpholin-4-yl-phenyl)-amine], the values for the IC50 at ALK and at JAK2 were > 10000 nM and < 100 nM, respectively.

Turning to `COc1ccccc1-c1ccc2cnc(Nc3ccc(OCCN4CCOCC4)cc3)nn12` [Example 128, [7-(2-Methoxy-phenyl)-pyrrolo[2,1-f][1,2,4]triazin-2-yl]-[4-(2-morpholin-4-yl-ethoxy)-phenyl]-amine], the IC50 at ALK and at JAK2 was < 100 nM in each case.

With `COc1ccc(Cl)cc1-c1ccc2cnc(Nc3cc(OC)c(OC)c(OC)c3)nn12` [Example 141, [7-(5-Chloro-2-methoxy-phenyl)-pyrrolo[2,1-f][1,2,4]triazin-2-yl]-(3,4,5-trimethoxy-phenyl)-amine], the IC50 on ALK was 100 to 1000 nM; on JAK2 it was < 100 nM.

For the molecule `COc1ccccc1-c1ccc2cnc(Nc3cc(OC)c(OC)c(OC)c3)nn12` [Example 142, [7-(2-Methoxy-phenyl)-pyrrolo[2,1-f][1,2,4]triazin-2-yl]-(3,4,5-trimethoxy-phenyl)-amine], the figures for the IC50 on ALK and at JAK2 were 100 to 1000 nM and < 100 nM, respectively.

Regarding `COc1cc(Nc2ncc3ccc(-c4cccc(Cl)c4)n3n2)cc(OC)c1OC` [Example 143, [7-(3-Chloro-phenyl)-pyrrolo[2,1-f][1,2,4]triazin-2-yl]-(3,4,5-trimethoxy-phenyl)-amine], the IC50 on ALK is 100 to 1000 nM; at JAK2, < 100 nM.

For the molecule `COc1cccc(Nc2ncc3ccc(-c4cc(Cl)ccc4OC)n3n2)c1` [Example 144, [7-(5-Chloro-2-methoxy-phenyl)-pyrrolo[2,1-f][1,2,4]triazin-2-yl]-(3-methoxy-phenyl)-amine], the figures for the IC50 on ALK and on JAK2 were 1000 to 10000 nM and < 100 nM, respectively.

On to `COc1cccc(Nc2ncc3ccc(-c4ccccc4OC)n3n2)c1` [Example 145, (3-Methoxy-phenyl)-[7-(2-methoxy-phenyl)-pyrrolo[2,1-f][1,2,4]triazin-2-yl]-amine], for which the IC50 at ALK was 1000 to 10000 nM; at JAK2, < 100 nM.

For the molecule `COc1cccc(Nc2ncc3ccc(-c4cccc(Cl)c4)n3n2)c1` [Example 146, [7-(3-Chloro-phenyl)-pyrrolo[2,1-f][1,2,4]triazin-2-yl]-(3-methoxy-phenyl)-amine], the IC50 at ALK is > 10000 nM; on JAK2 it was < 100 nM.

Consider `Clc1cccc(-c2ccc3cnc(Nc4cccc(N5CCOCC5)c4)nn23)c1` [Example 148, [7-(3-Chloro-phenyl)-pyrrolo[2,1-f][1,2,4]triazin-2-yl]-(3-morpholin-4-yl-phenyl)-amine], for which the IC50 is 1000 to 10000 nM at ALK and < 100 nM on JAK2.

For `COc1ccccc1-c1ccc2cnc(Nc3ccc4c(c3)OCO4)nn12` [Example 149, 1,3-Benzodioxol-5-yl-[7-(2-methoxy-phenyl)-pyrrolo[2,1-f][1,2,4]triazin-2-yl]-amine], the results for the IC50 on ALK and at JAK2 were 100 to 1000 nM and < 100 nM, respectively.

Regarding `Clc1cccc(-c2ccc3cnc(Nc4ccc5c(c4)OCO5)nn23)c1` [Example 150, 1,3-Benzodioxol-5-yl-[7-(3-chloro-phenyl)-pyrrolo[2,1-f][1,2,4]triazin-2-yl]-amine], the IC50 on ALK was > 10000 nM; at JAK2, < 100 nM.

With `COc1ccc(Nc2ncc3ccc(-c4cc(Cl)ccc4OC)n3n2)cc1OC` [Example 151, [7-(5-Chloro-2-methoxy-phenyl)-pyrrolo[2,1-f][1,2,4]triazin-2-yl]-(3,4-dimethoxy-phenyl)-amine], the values for the IC50 at ALK and on JAK2 were 100 to 1000 nM and < 100 nM, respectively.

Turning to `COc1ccc(Nc2ncc3ccc(-c4cccc(Cl)c4)n3n2)cc1OC` [Example 152, [7-(3-Chloro-phenyl)-pyrrolo[2,1-f][1,2,4]triazin-2-yl]-(3,4-dimethoxy-phenyl)-amine], the IC50 was 1000 to 10000 nM on ALK and < 100 nM on JAK2.

As to `COc1ccc(Nc2ncc3ccc(-c4cc(Cl)ccc4OC)n3n2)cc1` [Example 153, [7-(5-Chloro-2-methoxy-phenyl)-pyrrolo[2,1-f][1,2,4]triazin-2-yl]-(4-methoxy-phenyl)-amine], the results for the IC50 at ALK and at JAK2 were > 10000 nM and < 100 nM, respectively.

For `COc1ccc(Nc2ncc3ccc(-c4cccc(Cl)c4)n3n2)cc1` [Example 155, [7-(3-Chloro-phenyl)-pyrrolo[2,1-f][1,2,4]triazin-2-yl]-(4-methoxy-phenyl)-amine], the IC50 is > 10000 nM on ALK and < 100 nM on JAK2.

As to `COc1cc(Nc2ncc3ccc(-c4cccc(Cl)c4)n3n2)cc(OC)c1` [Example 156, [7-(3-Chloro-phenyl)-pyrrolo[2,1-f][1,2,4]triazin-2-yl]-(3,5-dimethoxy-phenyl)-amine], the IC50 on ALK is > 10000 nM; at JAK2, < 100 nM.

With `COc1cc(Nc2ncc3ccc(-c4cc(Cl)ccc4OC)n3n2)cc(OC)c1` [Example 157, [7-(5-Chloro-2-methoxy-phenyl)-pyrrolo[2,1-f][1,2,4]triazin-2-yl]-(3,5-dimethoxy-phenyl)-amine], the values for the IC50 on ALK and at JAK2 were 100 to 1000 nM and < 100 nM, respectively.

`COc1cc(Nc2ncc3ccc(-c4ccccc4OC)n3n2)cc(OC)c1` [Example 158, (3,5-Dimethoxy-phenyl)-[7-(2-methoxy-phenyl)-pyrrolo[2,1-f][1,2,4]triazin-2-yl]-amine]: the IC50 on ALK was 100 to 1000 nM; on JAK2 it was < 100 nM.

As to `CN(C)c1cccc(Nc2ncc3ccc(-c4cccc(Cl)c4)n3n2)c1` [Example 159, N-[7-(3-Chloro-phenyl)-pyrrolo[2,1-f][1,2,4]triazin-2-yl]-N′,N′-dimethyl-benzene-1,3-diamine], the results for the IC50 at ALK and on JAK2 were > 10000 nM and 1000 to 10000 nM, respectively.

As to `CN1CCN(c2cccc(Nc3ncc4ccc(-c5cccc(Cl)c5)n4n3)c2)CC1` [Example 161, [7-(3-Chloro-phenyl)-pyrrolo[2,1-f][1,2,4]triazin-2-yl]-[3-(4-methyl-piperazin-1-yl)-phenyl]-amine], the IC50 was 100 to 1000 nM at ALK and < 100 nM at JAK2.

With `COc1cc(Nc2ncc3ccc(-c4ccc(S(C)(=O)=O)cc4)n3n2)cc(OC)c1OC` [Example 162, [7-(4-Methanesulfonyl-phenyl)-pyrrolo[2,1-f][1,2,4]triazin-2-yl]-(3,4,5-trimethoxy-phenyl)-amine], the figures for the IC50 on ALK and at JAK2 were 100 to 1000 nM and < 100 nM, respectively.

Consider `CS(=O)(=O)c1ccc(-c2ccc3cnc(Nc4cccc(N5CCOCC5)c4)nn23)cc1` [Example 163, [7-(4-Methanesulfonyl-phenyl)-pyrrolo[2,1-f][1,2,4]triazin-2-yl]-(3-morpholin-4-yl-phenyl)-amine], for which the IC50 on ALK was 1000 to 10000 nM; at JAK2, < 100 nM.

For `COc1ccccc1-c1ccc2cnc(Nc3cccc(C(N)=O)c3)nn12` [Example 164, 3-[7-(2-Methoxy-phenyl)-pyrrolo[2,1-f][1,2,4]triazin-2-ylamino]-benzamide], the IC50 at ALK is 100 to 1000 nM; at JAK2 it was < 100 nM.

`NC(=O)c1cccc(Nc2ncc3ccc(-c4cccc(Cl)c4)n3n2)c1` [Example 165, 3-[7-(3-Chloro-phenyl)-pyrrolo[2,1-f][1,2,4]triazin-2-ylamino]-benzamide]: the IC50 was 1000 to 10000 nM at ALK and < 100 nM on JAK2.

With `COc1ccc(Cl)cc1-c1ccc2cnc(Nc3cccc(C(N)=O)c3)nn12` [Example 166, 3-[7-(5-Chloro-2-methoxy-phenyl)-pyrrolo[2,1-f][1,2,4]triazin-2-ylamino]-benzamide], the IC50 is 1000 to 10000 nM at ALK and < 100 nM at JAK2.

For `Clc1cccc(-c2ccc3cnc(Nc4ccc(N5CCCC5)cc4)nn23)c1` [Example 167, [7-(3-Chloro-phenyl)-pyrrolo[2,1-f][1,2,4]triazin-2-yl]-(4-pyrrolidin-1-yl-phenyl)-amine], the IC50 at ALK is 1000 to 10000 nM; at JAK2, < 100 nM.

As to `COc1ccc(Cl)cc1-c1ccc2cnc(Nc3ccc(N4CCCC4)cc3)nn12` [Example 168, [7-(5-Chloro-2-methoxy-phenyl)-pyrrolo[2,1-f][1,2,4]triazin-2-yl]-(4-pyrrolidin-1-yl-phenyl)-amine], the IC50 was 1000 to 10000 nM on ALK and < 100 nM on JAK2.
